Laboratory results: article PMC9306949 (Clinical Pharmacology in Drug Development, 2022)
“Also recorded” adds a separate entry of the source. Read-outs that look alike come from different tables or passages of the source. Marks after values point to notes of the source that are not given here.

Assays:
[1] = Urine excretion of navtemadlin and M1; format: in vivo, human
[2] = format: in vivo, human; conditions: for M/P (AUC0‐t), metabolite-to-parent ratio / AUC0‐24 / AUC0‐inf / AUC0‐t / C24 / Cmax: mean (%CV); for t1/2 / AUC0‐24 / AUC0‐inf / AUC0‐t / C24 / Cmax / tmax: plasma; for t1/2: arithmetic mean (%CV); for tmax: median (min-max)
[3] = cited from earlier work
[4] = cited from earlier work; remark: listed apart in the source
[5] = period 1 (old tablet fasted), 0-48 h urine
[6] = Treatment A (reference): new tablet fasted, drug-load analysis
[7] = Treatment A (reference): new tablet fasted, food-effect analysis
[8] = Treatment B (test 1): new tablet fed, food-effect analysis
[9] = Treatment B: 60-mg new tablet, fed (high-fat meal)
[10] = Treatment C (test 2): old tablet fasted, drug-load analysis
[11] = Treatment C: 60-mg old tablet, fasted
[12] = Treatment A: 60-mg new tablet, fasted
[13] = test/reference: B (new tablet fed) vs A (new tablet fasted)
[14] = test/reference: C (old tablet fasted) vs A (new tablet fasted)
[15] = patients with solid tumors or multiple myeloma

mean amount excreted in urine [1, 5]: 17.3 µg | mean fraction of dose excreted in urine [1, 5]: 0.02% | urine excretion ([1]; single 60-mg dose, healthy subjects): negligible | tmax, median ([2]; Treatment A (reference): new tablet fasted, average of 2, drug-load analysis): 2.5 ^d h | tmax, median ([2]; Treatment A (reference): new tablet fasted, average of 2, food-effect analysis): 2.5 ^d h | AUC0‐24, GLSM [2, 6]: 528, N = 30 ng • h/mL | AUC0‐inf, GLSM [2, 6]: 701, N = 28 ng • h/mL | AUC0‐t, GLSM [2, 6]: 646, N = 30 ng • h/mL | Cmax, GLSM [2, 6]: 98, N = 30 ng/mL | AUC0‐24, GLSM [2, 7]: 528, N = 30 ng • h/mL | AUC0‐inf, GLSM [2, 7]: 710, N = 28 ng • h/mL | AUC0‐t, GLSM [2, 7]: 646, N = 30 ng • h/mL | Cmax, GLSM [2, 7]: 98, N = 30 ng/mL | exposure in UGT1A1*28 heterozygous poor metabolizers (6/7 TA repeats) vs WT (6/6 TA repeats) ([2]; Treatment A, n = 16 vs n = 12): generally comparable | AUC0‐24, GLSM [2, 8]: 465, N = 30 ng • h/mL | AUC0‐inf, GLSM [2, 8]: 610, N = 22 ng • h/mL | AUC0‐t, GLSM [2, 8]: 555, N = 30 ng • h/mL | Cmax, GLSM [2, 8]: 117, N = 30 ng/mL | tmax, median [2, 8]: 3.0 ^d h | M/P (AUC0‐t), metabolite-to-parent ratio [2, 9]: 0.2 (38.3); 30 | AUC0‐24, GLSM [2, 10]: 506, N = 30 ng • h/mL | AUC0‐inf, GLSM [2, 10]: 643, N = 26 ng • h/mL | AUC0‐t, GLSM [2, 10]: 585, N = 30 ng • h/mL | Cmax, GLSM [2, 10]: 84, N = 30 ng/mL | tmax, median [2, 10]: 2.0 ^d h | M/P (AUC0‐t), metabolite-to-parent ratio [2, 11]: 0.2 (34.3); 30 | acyl glucuronide to parent drug AUC0‐t ratio ([2]; after correction for molecular weight, across study groups): ≈ 0.2 | time of second peak after dosing (enterohepatic recirculation) ([2]; all 3 treatments): around 10 hours | PK in H. pylori–positive vs H. pylori–negative subjects ([2]; n = 12 positive vs n = 18 negative): not markedly affected | decrease in extent of exposure (AUC0‐24, AUC0‐t, AUC0‐inf) with a high‐fat meal ([2]; new tablet fed vs fasted): 12% to 18% | increase in Cmax with a high‐fat meal ([2]; new tablet fed vs fasted): ≈ 18%; also recorded: ≈ 20% | difference in median tmax between fed and fasted conditions, significance ([2]; new tablet, Wilcoxon signed-rank, alpha level of 0.1): not significant | t1/2 [2, 12]: 16.2 (57.8); 46 h | AUC0‐24 [2, 12]: 607 (60.9); 60 ng • h/mL | AUC0‐inf [2, 12]: 849 (74.1); 46 ng • h/mL | AUC0‐t [2, 12]: 782 (72.2); 60 ng • h/mL | C24 [2, 12]: 7.82 (97.4); 60 ng/mL | Cmax [2, 12]: 118 (70.0); 60 ng/mL | tmax [2, 12]: 2.02 (1.00 – 6.00); 60 h | AUC0‐24 [2, 9]: 532 (56.0); 30 ng • h/mL | AUC0‐inf [2, 9]: 824 (61.1); 22 ng • h/mL | AUC0‐t [2, 9]: 666 (65.8); 30 ng • h/mL | C24 [2, 9]: 5.96 (87.8); 30 ng/mL | Cmax [2, 9]: 133 (52.6); 30 ng/mL | tmax [2, 9]: 3.00 (0.99 ‐ 4.02); 30 h | t1/2 [2, 11]: 13.7 (68.5); 26 h | AUC0‐24 [2, 11]: 609 (68.6); 30 ng • h/mL | AUC0‐inf [2, 11]: 794 (71.6); 26 ng • h/mL | AUC0‐t [2, 11]: 740 (77.5); 30 ng • h/mL | C24 [2, 11]: 7.04 (109.6); 30 ng/mL | Cmax [2, 11]: 101 (65.3); 30 ng/mL | tmax [2, 11]: 2.01 (1.00 – 6.00); 30 h | tmax, difference of medians (90%CI) ([2]; test-reference: B (new tablet fed) minus A (new tablet fasted)): 0.4 (‐0.002‐0.8) ^e , ^g h | tmax, difference of medians (90%CI) ([2]; test-reference: C (old tablet fasted) minus A (new tablet fasted)): 0.1 (–0.3 to 0.6) ^e , ^g h | AUC0‐24, % ratio of least squares means (90%CI) [2, 13]: 88.2 (82.2‐94.6) % | AUC0‐inf, % ratio of least squares means (90%CI) [2, 13]: 86.0 (77.5‐95.4) % | AUC0‐t, % ratio of least squares means (90%CI) [2, 13]: 85.9 (79.9‐92.3) % | Cmax, % ratio of least squares means (90%CI) [2, 13]: 118.7% | AUC0‐24, % ratio of least squares means (90%CI) [2, 14]: 95.8 (89.4‐102.7) % | AUC0‐inf, % ratio of least squares means (90%CI) [2, 14]: 91.8 (85.3 to 98.6) % | AUC0‐t, % ratio of least squares means (90%CI) [2, 14]: 90.6 (84.2 to 97.6) % | Cmax, % ratio of least squares means (90%CI) [2, 14]: 85.7 (77.9‐94.2) %
SMILES: CC(C)[C@@H](CS(=O)(=O)C(C)C)N1C(=O)[C@@](C)(CC(=O)O[C@@H]2O[C@H](C(=O)O)[C@@H](O)[C@H](O)[C@H]2O)C[C@H](c2cccc(Cl)c2)[C@H]1c1ccc(Cl)cc1 [M1, navtemadlin acyl glucuronide]
mean accumulation ([3]; 7‐day once‐daily dosing period, patients): < 2 fold | mean (SD) terminal half‐life (t1/2) [3, 15]: 14.0 (6.07) hours | mean metabolite‐to‐parent 24‐hour AUC ratio [3, 15]: 0.461 | mean tmax [3, 15]: 2 to 4 h | share of excreted biliary radioactivity ([4]; rat bile): accounts for most of the excreted biliary radioactivity | presence in feces ([4]; rat feces, hydrolysis in the intestine): not present in rat feces
